Target: Gastrin/cholecystokinin type B receptor (Cavia porcellus)
Test: Half-maximal inhibition of binding of [125I]gastrin to guinea pig gastric glands

| Compound | IC50 |
| --- | --- |
| CC(C)CC(N)C(=O)N1CC(CC2N=C(c3ccccc3)c3ccccc3NC2=O)c2ccccc21 (stereo not given) | > 100 µM |
| CN1C(=O)[C@@H](Cc2cn(C)c3ccccc23)N=C(c2ccccc2)c2ccccc21 | 67 µM |
| CC(C)C[C@H]1N=C(c2ccccc2)c2cc(Cl)ccc2NC1=O | 38 µM |
| CN1C(=O)[C@@H](Cc2c[nH]c3ccccc23)N=C(c2ccccc2)c2ccccc21 | 21 µM |
| O=C1Nc2ccc(Cl)cc2C(c2ccccc2)=N[C@@H]1COCc1ccccc1 | 13 µM |
| CCN1C(=O)[C@@H](Cc2c[nH]c3ccccc23)N=C(c2ccccc2F)c2ccccc21 | > 100 µM |
| CC(C)CCN1C(=O)[C@@H](Cc2c[nH]c3ccccc23)N=C(c2ccccc2F)c2ccccc21 | 23 µM |
| O=C1Nc2ccccc2C1C[C@H]1N=C(c2ccccc2)c2cc(Cl)ccc2NC1=O (stereo not given in full) | > 100 µM |
| O=C(O)CCN1C(=O)[C@@H](Cc2c[nH]c3ccccc23)N=C(c2ccccc2F)c2ccccc21 | 5.8 µM |
| O=C(O)CN1C(=O)[C@@H](Cc2c[nH]c3ccccc23)N=C(c2ccccc2F)c2ccccc21 [CCK antagonist synthetic 13] | 5 µM |
